Data published in PMC5792912 (Royal Society Open Science, 2018).

Key:
COMT in HLC [1] = target: T1, COMT in HLC (Homo sapiens, UniProt P21964); assay: Methylation kinetics in pooled human liver cytosol (HLC); format: in vitro ADME; conditions: for Clint: intrinsic clearance (Vmax/Km); for COMT substrate in human liver cytosol: human liver cytosol with SAM
T1 construct: Pooled human liver cytosol (HLC) from seven male donors; tissue Research Institute for Liver Diseases (Shanghai, China) Lot; QROX; host or cells: pooled human liver cytosol, seven male donors
T1 sequence (P21964 1-221 isoform P21964-2): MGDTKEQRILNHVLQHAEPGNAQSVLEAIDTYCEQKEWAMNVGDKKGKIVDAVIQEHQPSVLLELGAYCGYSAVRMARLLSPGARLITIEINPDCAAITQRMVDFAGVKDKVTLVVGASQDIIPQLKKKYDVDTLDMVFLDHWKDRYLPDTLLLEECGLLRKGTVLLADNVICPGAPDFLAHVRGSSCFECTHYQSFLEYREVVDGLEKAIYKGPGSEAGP
Description: (§1) Reaction mixtures were pre-incubated at 37°C for 5 min and initiated by the addition of SAM to a final concentration of 0.4 mM. The samples were incubated for a certain period of time and the reaction was terminated by the addition of 200 µl ice-cold acetonitrile and then centrifuged at 20 000g, 4°C, for 20 min. Control incubations were performed either without human liver cytosol, or without SAM or without substrate. The supernatants were subjected to ultra-fast liquid chromatography (UFLC) coupled with a diode array detector (DAD) and an electrospray ionization (ESI) mass spectrometer (MS) analyzer.
(§2) 7,8-DHCs and their methylated conjugates were analysed by a UFLC spectrometry system (Shimadzu, Kyoto, Japan), equipped with two LC-20AD pumps, a DGU-20A3 vacuum degasser, a SIL-20ACHT auto-sampler, a CTO-20AC column oven, an SPD-M 20A DAD, a CBM-20A communications bus module, a mass detector (2010EV) with an ESI interface and a computer equipped with UFLC-MS SOLUTION v. 3.41 software. A Shimadzu ODS (75.0 × 2.0 mm, 3 µm) analytical column was used to separate 7,8-DHCs and their methylated conjugates. Column temperature was kept at 40°C. […] The methylation samples were stable over 72 h at 4°C. 7,8-DHC methylation was quantified by the standard curves of the methylated conjugates at the detector wavelength of 325 nm, which were linear from 0.01 to 10 µM (the correlation coefficient was 0.999).
(§3) For estimating kinetic parameters, 7,8-DHCs (0.1–40 µM) were incubated with pooled HLC and S-COMT. 7,8-DHCs (0.1–40 µM) were incubated with HLC or S-COMT for 5 min, using a microsomal protein concentration of 0.5 mg ml^−1 or 0.002 mg ml^−1 for HLC and S-COMT, respectively. Kinetic constants for 7,8-DHCs methylation by HLC and S-COMT were obtained by fitting the Michaelis–Menten kinetics equation (3.1) to experimental data.
(§4) For the Michaelis–Menten kinetic model, 3.1 v=Vmax×[S]/Km+[S], where v is the rate of reaction, [S] is the substrate concentration, Vmax is the maximum velocity estimate and Km is the apparent affinity constant.
(§5) All incubations were performed in duplicate. Kinetic constants were obtained using GraphPad PRISM 6 (GraphPad Software, Inc. La Jolla, CA) software.

[2] = target: T2, recombinant human soluble COMT (S-COMT) (Homo sapiens, UniProt P21964); assay: Methylation kinetics with recombinant human soluble COMT; format: in vitro ADME; conditions: for Clint: intrinsic clearance (Vmax/Km)
T2 construct: made in house
T2 sequence (P21964 1-221 isoform P21964-2): T1 sequence (P21964 1-221 isoform P21964-2)
Description: as §1, §2, §3, §4, §5

COMT in HLC [3] = target: T1, COMT in HLC; assay: Methylation kinetics in pooled human liver cytosol (HLC); format: in vitro ADME; conditions: identified by NMR
[4] = after administration in rats; cited from earlier work
human hepatocytes = conditions: cited from earlier work

SMILES: Cc1cc(=O)oc2c(O)c(O)ccc12 [4-MDPN, 4-methyl daphnetin]
- Clint (COMT in HLC [1]; HLC): 0.70 µL/min/mg
- COMT substrate in human liver cytosol (COMT in HLC [1]): COMT substrates
- Clint [2]: 154.8 µL/min/mg
- methylated metabolite identified (COMT in HLC [3]): 8-O-methylated 7,8-DHC

SMILES: O=c1cc(-c2ccccc2)c2ccc(O)c(O)c2o1 [4-PDPN, 4-phenyl daphnetin]
- Clint (COMT in HLC [1]; HLC): 1.91 µL/min/mg
- COMT substrate in human liver cytosol (COMT in HLC [1]): COMT substrates
- Clint [2]: 424.0 µL/min/mg
- methylated metabolite identified (COMT in HLC [3]): 8-O-methylated 7,8-DHC

SMILES: O=C(O)Cc1cc(=O)oc2c(O)c(O)ccc12 [4-ADPN, 4-acetic acid daphnetin]
- Clint (COMT in HLC [1]; HLC): 0.017 µL/min/mg
- COMT substrate in human liver cytosol (COMT in HLC [1]): COMT substrates
- Clint [2]: 31.1 µL/min/mg
- methylated metabolite identified (COMT in HLC [3]): 8-O-methylated 7,8-DHC

SMILES: O=c1ccc2ccc(O)c(O)c2o1 [daphnetin, 7,8-dihydroxycoumarin]
- Vmax (COMT in HLC [1]; HLC, best-fit value ± s.e.): 0.11 ± 0.0034 nmol/min/mg
- Clint (COMT in HLC [1]; HLC): 0.52 µL/min/mg
- COMT substrate in human liver cytosol (COMT in HLC [1]): COMT substrates
- half-life [4]: 15 min
- methyl-derived metabolites (human hepatocytes): 37.3%
- Vmax ([2]; best-fit value ± s.e.): 81.4 ± 2.4 nmol/min/mg
- Clint [2]: 169.5 µL/min/mg
- methylated metabolite identified (COMT in HLC [3]): 8-O-methylated 7,8-DHC
